Results from patent publication US12637413B2, “Fatty acid amide hydrolase (FAAH) cleavable prodrugs of thyromimetics and combination with peripherally restricted FAAH inhibitors” (Autobahn Therapeutics, Inc., priority 2021, dated 2026).

biological target: T1, recombinant human FAAH (rhFAAH) (Homo sapiens, UniProt O00519); assay: FAAH substrate evaluation (acid metabolite formation); format: biochemical; conditions: observed rate constant for acid metabolite formation; 0.5 ng/μL rhFAAH, 1 μM test compound, room temperature, 0-60 minutes
T1 construct: purchased Cayman Chemical (Ann Arbor, MI, USA)
T1 sequence (O00519 1-579): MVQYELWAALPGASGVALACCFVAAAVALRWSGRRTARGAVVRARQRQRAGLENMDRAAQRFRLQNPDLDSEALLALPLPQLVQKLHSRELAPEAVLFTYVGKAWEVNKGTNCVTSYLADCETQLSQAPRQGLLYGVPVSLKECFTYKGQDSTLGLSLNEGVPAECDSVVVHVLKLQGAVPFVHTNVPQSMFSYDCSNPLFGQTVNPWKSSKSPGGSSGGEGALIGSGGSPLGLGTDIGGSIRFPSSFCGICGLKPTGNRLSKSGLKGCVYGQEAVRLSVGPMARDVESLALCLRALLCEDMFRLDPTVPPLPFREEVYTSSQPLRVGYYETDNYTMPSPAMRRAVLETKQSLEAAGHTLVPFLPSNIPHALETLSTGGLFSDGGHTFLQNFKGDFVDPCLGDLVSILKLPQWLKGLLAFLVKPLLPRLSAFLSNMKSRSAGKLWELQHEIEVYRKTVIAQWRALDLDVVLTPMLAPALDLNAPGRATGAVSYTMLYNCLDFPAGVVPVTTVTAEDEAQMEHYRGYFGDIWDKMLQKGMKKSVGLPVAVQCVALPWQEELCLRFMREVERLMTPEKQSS
Procedure: Purified recombinant human FAAH (rhFAAH) was purchased from Cayman Chemical (Ann Arbor, MI, USA). The total volume for each incubation was 400 μL containing a final 0.5 ng/μL rhFAAH, 1 μM test compound, 1.25% ethanol or 1 μM PF-3845 (FAAH inhibitor), and 0.1% bovine serum albumin in Tris-EDTA buffer at pH 8.0). The positive control was LL-341001. The incubation was conducted at the room temperature. At 0, 5, 15, 30 and 60 minutes, an aliquot of 30 μL reaction mixtures was removed and mixed with 300 μL acetonitrile containing 5 ng/mL terfenadine and 10 ng/mL tolbutamide as internal standards to quench the reaction. The resulting mixture was centrifuged at 4000 rpm, 4° C. for 15 minutes, and 100 μL supernatant was ready for LC-MS/MS analysis to measure the formation of acid metabolite.
Acquity Ultra Performance LC system from Waters was used for sample analysis. The chromatography was performed on a reverse phase Kinetex 2.6 μm C18 column, 2.1×30 mm, 100 Å. The mobile phase A comprised of 0.1% formic acid in water and mobile phase B comprised of 0.1% formic acid in acetonitrile with a 2-min run time at the flow rate of 0.8 mL/min for the acid metabolite from positive control or a 1.5 min run time at the flow rate of 0.9 mL/min for the acid metabolite of test compounds. The mass spectrometer (API-5500 and API Q Trap 4000 Applied Biosystems/MDS SCIEX Instruments, Framingham, MA, USA) was operated under ESI positive or negative ion MRM mode.
The formation of acid metabolite was monitored and quantified using one calibration point of 1 μM. The observed rate constant (ke) for the acid metabolite formation was calculated by plotting the metabolite concentration versus time of incubation with the slope being ke and is shown in Table 1.

Structure (SMILES)	ke
CC(C)c1cc(Cc2c(Cl)cc(OCC(=O)N(C)N(C)C)cc2Cl)ccc1O [Compound 108, 2-(3,5-dichloro-4-(4-hydroxy-3-isopropylbenzyl)phenoxy)-N,N′,N′-trimethylacetohydrazide]	B (ke is less than 0.1 and more than 0)
CC(C)c1cc(Cc2c(Cl)cc(OCC(=O)N[C@@H]3C[C@@H]3F)cc2Cl)ccc1O [Compound 111, 2-(3,5-dichloro-4-(4-hydroxy-3-isopropylbenzyl)phenoxy)-N-((1R,2S)-2-fluorocyclopropyl)acetamide]	A (ke is more than or equal to 0.1)
CC(C)c1cc(Cc2c(Cl)cc(OCC(=O)NCCCF)cc2Cl)ccc1O [Compound 112, 2-(3,5-dichloro-4-(4-hydroxy-3-isopropylbenzyl)phenoxy)-N-(3-fluoropropyl)acetamide]	A (ke is more than or equal to 0.1)
COc1ccc(NC(=O)COc2cc(Cl)c(Cc3ccc(O)c(C(C)C)c3)c(Cl)c2)nn1 [Compound 113, 2-(3,5-dichloro-4-(4-hydroxy-3-isopropylbenzyl)phenoxy)-N-(6-methoxypyridazin-3-yl)acetamide]	A (ke is more than or equal to 0.1)
CC(C)c1cc(Cc2c(Cl)cc(OCC(=O)Nc3cccnc3)cc2Cl)ccc1O [Compound 114, 2-(3,5-dichloro-4-(4-hydroxy-3-isopropylbenzyl)phenoxy)-N-(pyridin-3-yl)acetamide]	A (ke is more than or equal to 0.1)
CC(C)c1cc(Cc2c(Cl)cc(OCC(=O)Nc3ccncc3)cc2Cl)ccc1O [Compound 115, 2-(3,5-dichloro-4-(4-hydroxy-3-isopropylbenzyl)phenoxy)-N-(pyridin-4-yl)acetamide]	A (ke is more than or equal to 0.1)
CC(C)c1cc(Cc2c(Cl)cc(OCC(=O)Nc3ccnnc3)cc2Cl)ccc1O [Compound 116, 2-(3,5-dichloro-4-(4-hydroxy-3-isopropylbenzyl)phenoxy)-N-(pyridazin-4-yl)acetamide]	A (ke is more than or equal to 0.1)
CC(C)c1cc(Cc2c(Cl)cc(OCC(=O)N3CCCC3)cc2Cl)ccc1O [Compound 117, 2-(3,5-dichloro-4-(4-hydroxy-3-isopropylbenzyl)phenoxy)-1-(pyrrolidin-1-yl)ethan-1-one]	B (ke is less than 0.1 and more than 0)
CC(C)c1cc(Cc2c(Cl)cc(OCC(=O)N3CCC3)cc2Cl)ccc1O [Compound 118, 1-(azetidin-1-yl)-2-(3,5-dichloro-4-(4-hydroxy-3-isopropylbenzyl)phenoxy)ethan-1-one]	B (ke is less than 0.1 and more than 0)
CC(C)c1cc(Cc2c(Cl)cc(OCC(=O)NC(C)(C)C)cc2Cl)ccc1O [Compound 119, N-(tert-butyl)-2-(3,5-dichloro-4-(4-hydroxy-3-isopropylbenzyl)phenoxy)acetamide]	C (ke is 0)
CC(C)CN(C)C(=O)COc1cc(Cl)c(Cc2ccc(O)c(C(C)C)c2)c(Cl)c1 [Compound 120, 2-(3,5-dichloro-4-(4-hydroxy-3-isopropylbenzyl)phenoxy)-N-isobutyl-N-methylacetamide]	C (ke is 0)
CC(C)CNC(=O)COc1cc(Cl)c(Cc2ccc(O)c(C(C)C)c2)c(Cl)c1 [Compound 121, 2-(3,5-dichloro-4-(4-hydroxy-3-isopropylbenzyl)phenoxy)-N-isobutylacetamide]	C (ke is 0)
CC(C)c1cc(Cc2c(Cl)cc(OCC(=O)N(C)C(C)C)cc2Cl)ccc1O [Compound 122, 2-(3,5-dichloro-4-(4-hydroxy-3-isopropylbenzyl)phenoxy)-N-isopropyl-N-methylacetamide]	B (ke is less than 0.1 and more than 0)
CC(C)c1cc(Cc2c(Cl)cc(OCC(=O)N(C)CCO)cc2Cl)ccc1O [Compound 123, 2-(3,5-dichloro-4-(4-hydroxy-3-isopropylbenzyl)phenoxy)-N-(2-hydroxyethyl)-N-methylacetamide]	B (ke is less than 0.1 and more than 0)
CNN(C)C(=O)COc1cc(Cl)c(Cc2ccc(O)c(C(C)C)c2)c(Cl)c1 [Compound 124, 2-(3,5-dichloro-4-(4-hydroxy-3-isopropylbenzyl)phenoxy)-N,N′-dimethylacetohydrazide]	B (ke is less than 0.1 and more than 0)
CC(C)c1cc(Cc2c(Cl)cc(OCC(=O)N(C)CCF)cc2Cl)ccc1O [Compound 125, 2-(3,5-dichloro-4-(4-hydroxy-3-isopropylbenzyl)phenoxy)-N-(2-fluoroethyl)-N-methylacetamide]	B (ke is less than 0.1 and more than 0)
CC(C)NC(=O)COc1cc(Cl)c(Cc2ccc(O)c(C(C)C)c2)c(Cl)c1 [Compound 126, 2-(3,5-dichloro-4-(4-hydroxy-3-isopropylbenzyl)phenoxy)-N-isopropylacetamide]	A (ke is more than or equal to 0.1)
CC(C)c1cc(Cc2c(Cl)cc(OCC(=O)NC3CCC3)cc2Cl)ccc1O [Compound 127, N-cyclobutyl-2-(3,5-dichloro-4-(4-hydroxy-3-isopropylbenzyl)phenoxy)acetamide]	B (ke is less than 0.1 and more than 0)
C=CCN(C)C(=O)COc1cc(Cl)c(Cc2ccc(O)c(C(C)C)c2)c(Cl)c1 [Compound 128, N-allyl-2-(3,5-dichloro-4-(4-hydroxy-3-isopropylbenzyl)phenoxy)-N-methylacetamide]	B (ke is less than 0.1 and more than 0)
CCCN(C)C(=O)COc1cc(Cl)c(Cc2ccc(O)c(C(C)C)c2)c(Cl)c1 [Compound 129, 2-(3,5-dichloro-4-(4-hydroxy-3-isopropylbenzyl)phenoxy)-N-methyl-N-propylacetamide]	B (ke is less than 0.1 and more than 0)
CCN(C)C(=O)COc1cc(Cl)c(Cc2ccc(O)c(C(C)C)c2)c(Cl)c1 [Compound 130, 2-(3,5-dichloro-4-(4-hydroxy-3-isopropylbenzyl)phenoxy)-N-ethyl-N-methylacetamide]	B (ke is less than 0.1 and more than 0)
CC(C)c1cc(Cc2c(Cl)cc(OCC(=O)N(C)CC(F)(F)F)cc2Cl)ccc1O [Compound 131, 2-(3,5-dichloro-4-(4-hydroxy-3-isopropylbenzyl)phenoxy)-N-methyl-N-(2,2,2-trifluoroethyl)acetamide]	B (ke is less than 0.1 and more than 0)
CC(C)c1cc(Cc2c(Cl)cc(OCC(=O)N(C)CC(F)F)cc2Cl)ccc1O [Compound 132, 2-(3,5-dichloro-4-(4-hydroxy-3-isopropylbenzyl)phenoxy)-N-(2,2-difluoroethyl)-N-methylacetamide]	B (ke is less than 0.1 and more than 0)
CC(C)c1cc(Cc2c(Cl)cc(OCC(=O)N3CCOCC3)cc2Cl)ccc1O [Compound 133, 2-(3,5-dichloro-4-(4-hydroxy-3-isopropylbenzyl)phenoxy)-1-morpholinoethan-1-one]	A (ke is more than or equal to 0.1)
